Experiment [1] concerns Mycobacterium tuberculosis variant bovis BCG. Description: Inhibition of late-stage mycolic acid biosynthesis in Mycobacterium bovis BCG at 5 times MIC incubated for 6 hrs by TLC based autoradiography analysis. Format: functional, organism-based.
Experiment [2] shares this test system. The experiment can be described thus: Inhibition of mycolic acid biosynthesis in Mycobacterium bovis BCG assessed as decrease in keto mycolic acid transfer onto cell wall arabinogalactan at 0.5 times MIC incubated for 12 hrs in presence of [14C]acetate by TLC based autoradiography analysis. Format: functional, organism-based.
The test system is the same in experiment [3]. The experiment can be described thus: Inhibition of mycolic acid biosynthesis in Mycobacterium bovis BCG assessed as decrease in alpha mycolic acid transfer onto cell wall arabinogalactan at 0.5 times MIC incubated for 12 hrs in presence of [14C]acetate by TLC based autoradiography analysis. Format: functional, organism-based.
For experiment [4], the system named is Mycobacterium tuberculosis variant bovis. Description: Downregulation of fbpA gene expression in Mycobacterium bovis BCG at 1 times MIC incubated for 8 hrs by RNA-sequencing analysis. The class given is functional.
In experiment [5] the test system is Mycobacterium tuberculosis variant bovis BCG. Description: Inhibition of cell wall biosynthesis in Mycobacterium bovis BCG assessed as reduction in trehalose dimycolate accumulation at 0.5 times MIC incubated for 12 hrs in presence of [14C]acetate by TLC based autoradiography analysis. The class given is functional, organism-based.
Experiment [6] has as its system Mycobacterium tuberculosis variant bovis. The experiment can be described thus: Effect on nuoA-N gene expression in Mycobacterium bovis BCG at 1 times MIC incubated for 8 hrs by RNA-sequencing analysis. Format: functional.
For experiment [7] the test system is unchanged. The experiment can be described thus: Effect on cydA-D gene expression in Mycobacterium bovis BCG at 1 times MIC incubated for 8 hrs by RNA-sequencing analysis. The class given is functional.
For experiment [8] the test system is unchanged. The experiment can be described thus: Upregulation of mbtC gene expression in Mycobacterium bovis BCG at 1 times MIC incubated for 8 hrs by RNA-sequencing analysis. The class given is functional.
The test system is the same in experiment [9]. Description: Upregulation of tcrYX gene expression in Mycobacterium bovis BCG at 1 times MIC incubated for 8 hrs by RNA-sequencing analysis. Format: functional.
Experiment [10] shares this test system. The experiment can be described thus: Upregulation of mmpL5 gene expression in Mycobacterium bovis BCG at 1 times MIC incubated for 8 hrs by RNA-sequencing analysis. The class given is functional.
Experiment [11] has the same test system. The experiment can be described thus: Upregulation of zur gene expression in Mycobacterium bovis BCG at 1 times MIC incubated for 8 hrs by RNA-sequencing analysis. The class given is functional.
For experiment [12] the test system is unchanged. Description: Downregulation of desA2 gene expression in Mycobacterium bovis BCG at 1 times MIC incubated for 8 hrs by RNA-sequencing analysis. The class given is functional.
The test system is the same in experiment [13]. Description: Downregulation of mmaA3 gene expression in Mycobacterium bovis BCG at 1 times MIC incubated for 8 hrs by RNA-sequencing analysis. The class given is functional.
The test system is the same in experiment [14]. The experiment can be described thus: Downregulation of hadA gene expression in Mycobacterium bovis BCG at 1 times MIC incubated for 8 hrs by RNA-sequencing analysis. The class given is functional.
Experiment [15] has the same test system. The experiment can be described thus: Upregulation of mbtD gene expression in Mycobacterium bovis BCG at 1 times MIC incubated for 8 hrs by RNA-sequencing analysis. The class given is functional.
Experiment [16] shares this test system. Description: Upregulation of ideR gene expression in Mycobacterium bovis BCG at 1 times MIC incubated for 8 hrs by RNA-sequencing analysis. The class given is functional.
The subject of experiment [17] is Mycobacterium tuberculosis variant bovis BCG. Description: Inhibition of cell wall biosynthesis in Mycobacterium bovis BCG assessed as formation of cytoplasmic membrane phospholipids at 0.5 times MIC incubated for 12 hrs in presence of [14C]acetate by TLC based autoradiography analysis. Format: functional, organism-based.
The subject of experiment [18] is Mycobacterium tuberculosis variant bovis. Description: Downregulation of inhA gene expression in Mycobacterium bovis BCG at 1 times MIC incubated for 8 hrs by RNA-sequencing analysis. The class given is functional.
The test system is the same in experiment [19]. Description: Downregulation of fabG1 gene expression in Mycobacterium bovis BCG at 1 times MIC incubated for 8 hrs by RNA-sequencing analysis. The class given is functional.
For experiment [20], the system named is Mycobacterium tuberculosis variant bovis BCG. Description: Inhibition of cell wall biosynthesis in Mycobacterium bovis BCG assessed as reduction in trehalose monomycolate accumulation at 0.5 times MIC incubated for 12 hrs in presence of [14C]acetate by TLC based autoradiography analysis. The class given is functional, organism-based.
Experiment [21] relates to Mycobacterium tuberculosis variant bovis. The experiment can be described thus: Upregulation of cmtR gene expression in Mycobacterium bovis BCG at 1 times MIC incubated for 8 hrs by RNA-sequencing analysis. The class given is functional.
For experiment [22] the test system is unchanged. Description: Effect on ctaC-E gene expression in Mycobacterium bovis BCG at 1 times MIC incubated for 8 hrs by RNA-sequencing analysis. The class given is functional.
Experiment [23] shares this test system. The experiment can be described thus: Downregulation of fbpD gene expression in Mycobacterium bovis BCG at 1 times MIC incubated for 8 hrs by RNA-sequencing analysis. Format: functional.
For experiment [24] the test system is unchanged. The experiment can be described thus: Effect on narG-J gene expression in Mycobacterium bovis BCG at 1 times MIC incubated for 8 hrs by RNA-sequencing analysis. Format: functional.
Experiment [25] has the same test system. Description: Effect on qcrA-C gene expression in Mycobacterium bovis BCG at 1 times MIC incubated for 8 hrs by RNA-sequencing analysis. Format: functional.
Experiment [26] shares this test system. The experiment can be described thus: Downregulation of acpM gene expression in Mycobacterium bovis BCG at 1 times MIC incubated for 8 hrs by RNA-sequencing analysis. Format: functional.
For experiment [27] the test system is unchanged. The experiment can be described thus: Downregulation of mmaA2 gene expression in Mycobacterium bovis BCG at 1 times MIC incubated for 8 hrs by RNA-sequencing analysis. Format: functional.
Experiment [28] shares this test system. Description: Upregulation of mmpS5 gene expression in Mycobacterium bovis BCG at 1 times MIC incubated for 8 hrs by RNA-sequencing analysis. Format: functional.
Experiment [29] has the same test system. Description: Upregulation of mbtB gene expression in Mycobacterium bovis BCG at 1 times MIC incubated for 8 hrs by RNA-sequencing analysis. Format: functional.

Activity calls are given as the source filed them. The calls are words filed in the database; no cut-off is given here.

Take `Brc1cc(Br)cc([C@H]2C[C@@H](CN3CCCC3)N2Cc2ccccc2Br)c1` (racemic): in experiment [1], the inhibition entry is “Active”.
For `CNC[C@@H]1C[C@H](c2ccc(OC(F)(F)F)cc2)N1Cc1ccccc1OC(F)(F)F` (racemic), the inhibition result in experiment [2], in experiment [3], in [5], in [1] and in [20] was “Active” each time. Further, the outcome in [4], in experiment [6], in experiment [7], in experiment [8], in experiment [9] and in experiment [10] was Active. Besides, the result in experiment [11], in experiment [12], in experiment [13], in experiment [14], in experiment [15] and in [16] was Active. In addition, the outcome in experiment [18], in experiment [19], in experiment [21], in experiment [22], in experiment [23] and in experiment [24] was Active. Moreover, the outcome in [25], in experiment [26], in [27], in experiment [28] and in [29] was Active. Further, the inhibition entry in [17] is “inactive”.

These data come from ChEMBL document CHEMBL5385915 (J Med Chem, 2024).
